Measured values as given in patent US11905274B2, “Receptor inhibitors, pharmaceutical compositions comprising the same and use thereof” (BEIJING TIDE PHARMACEUTICAL CO., LTD., priority 2018, dated 2024).
Read-outs that look alike come from different tables or passages of the source.

Columns and labels:
AT1 Receptor (AT1R) = AT1 Receptor (AT1R) (Homo sapiens (Human), UniProt P30556); assay: Inhibitory activity on AT1 receptor (Tag-lite HTRF, Tb-labeled AT1R cells, angiotensin receptor red agonist); assay type: binding; conditions: 1 h at room temperature
Sequence of AT1 Receptor (AT1R) (P30556 whole entry): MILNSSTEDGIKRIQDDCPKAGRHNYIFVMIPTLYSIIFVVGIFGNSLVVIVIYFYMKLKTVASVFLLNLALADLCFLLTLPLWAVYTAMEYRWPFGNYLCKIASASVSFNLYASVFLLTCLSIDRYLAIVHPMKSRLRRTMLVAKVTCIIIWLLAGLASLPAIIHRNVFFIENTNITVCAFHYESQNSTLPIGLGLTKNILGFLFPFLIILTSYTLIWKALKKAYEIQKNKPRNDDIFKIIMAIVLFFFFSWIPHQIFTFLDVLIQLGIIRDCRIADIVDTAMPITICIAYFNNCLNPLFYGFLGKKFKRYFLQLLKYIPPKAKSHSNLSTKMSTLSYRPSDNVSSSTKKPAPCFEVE

[1] = Pharmacokinetic (PK) test in mice; assay type: in vivo; conditions: male ICR mice, plasma; for AUC(0-inf): read-out: AUCINF_obs; for Cmax: read-out: C0/Cmax
Method: To male ICR mice, the solution of Compound C2 (1 mg/mL) of the present invention and the solution of control Compound A (1 mg/mL) were administered intravenously (IV) and intragastrically (PO), in both of which the vehicle system is DMSO, solutol and deionized water (1:2:17, v:v:v). For Compound C2 and Compound A, the IV and PO dosages were 3 mg/kg and 20 mg/kg, respectively. For IV administration, blood was collected from the ophthalmic venous plexus of the mice at (0) horn before the administration and at 0.083, 0.25, 0.5, 1, 2, 4, 6, 8, and 24 horns after the administration, while for PO administration, blood was collected from ophthalmic venous plexus of the mice at (0) hour before the administration and at 0.25, 0.5, 1, 2, 4, 6, 8, and 24 horns after the administration. For Compound C2, a 0.05 mL blood sample was taken at each time point, while for Compound A, a 0.03 mL blood sample was taken at each time point. The collected blood sample was placed in a clean sample tube containing EDTA-K2 (4%), and centrifuged at 5000 rpm at 4° C. for 5 minutes. The resulting plasma was transferred to another clean sample tube, and stored at −20° C. LC-MS/MS analysis was performed on the plasma samples. The pharmacokinetic parameters were calculated using WinNonlin 6.3 software.

AT2 Receptor (AT2R) = AT2 Receptor (AT2R) (Homo sapiens (Human), UniProt P50052); assay: Inhibitory activity on AT2 receptor (Tag-lite HTRF, Tb-labeled AT2R cells, angiotensin receptor red agonist); assay type: binding; conditions: 1 h at room temperature
Sequence of AT2 Receptor (AT2R) (P50052 whole entry): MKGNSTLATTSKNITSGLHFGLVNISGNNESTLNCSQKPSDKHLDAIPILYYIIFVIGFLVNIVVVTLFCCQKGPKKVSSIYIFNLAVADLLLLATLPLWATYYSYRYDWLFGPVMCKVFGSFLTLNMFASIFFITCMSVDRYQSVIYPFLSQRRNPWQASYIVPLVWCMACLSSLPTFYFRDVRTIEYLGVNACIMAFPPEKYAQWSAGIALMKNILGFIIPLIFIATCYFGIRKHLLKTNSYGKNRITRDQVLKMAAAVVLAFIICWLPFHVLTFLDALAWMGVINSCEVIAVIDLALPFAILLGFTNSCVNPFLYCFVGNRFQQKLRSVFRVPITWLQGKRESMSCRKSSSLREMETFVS

Row | SMILES | IC50 (AT1 Receptor (AT1R)) | IC50 (AT2 Receptor (AT2R)) | other results
1 | O=C(O)[C@@H]1CN(C(=O)N(c2ccccc2)c2ccccc2)CCN1C(=O)N1c2ccccc2C=Cc2ccccc21 [Compound C2, (S)-1-(5H-dibenzo[b,f]azepine-5-carbonyl)-4-(diphenylcarbamoyl) piperazine-2-carboxylic acid] | > 10000 nM | 20.3 nM | CL_obs ([1]; IV, 3 mg/kg): 1.010 mL/min/kg; bioavailability ([1]; mouse, PO 20 mg/kg vs IV 3 mg/kg): 45.7%; AUC(0-t) ([1]; mouse, IV, 3 mg/kg): 49 µg·h/mL; MRT last ([1]; mouse, IV, 3 mg/kg): 1.9 h; half-life ([1]; mouse, IV, 3 mg/kg): 4.51 h; AUC(0-inf) ([1]; mouse, IV, 3 mg/kg): 49.5 µg·h/mL; Cmax ([1]; mouse, IV, 3 mg/kg): 43.4 µg/mL; AUC(0-t) ([1]; mouse, PO, 20 mg/kg): 151 µg·h/mL; MRT last ([1]; mouse, PO, 20 mg/kg): 2.34 h; half-life ([1]; mouse, PO, 20 mg/kg): 3.05 h; AUC(0-inf) ([1]; mouse, PO, 20 mg/kg): 151 µg·h/mL; Cmax ([1]; mouse, PO, 20 mg/kg): 62 µg/mL
2 | O=C(O)[C@@H]1CN(C(=O)N2c3ccccc3Sc3ccccc32)CCN1C(=O)C(c1ccccc1)c1ccccc1 [Compound C12, (S)-1-(2,2-diphenylacetyl)-4-(10H-phenothiazine-10-carbonyl) piperazine-2-carboxylic acid] | > 10000 nM | 43.7 nM | 
3 | O=C(O)[C@@H]1CN(C(=O)N(c2ccccc2)c2ccccc2)CCN1C(=O)N1c2ccccc2Sc2ccccc21 [Compound C20, (S)-4-(diphenylcarbamoyl)-1-(10H-phenothiazine-10-carbonyl)piperazine-2-carboxylic acid] | > 10000 nM | 36.7 nM | 
4 | CN(C)S(=O)(=O)NC(=O)[C@@H]1CN(C(=O)N(c2ccccc2)c2ccccc2)CCN1C(=O)N1c2ccccc2C=Cc2ccccc21 [Compound C33, (S)-4-(5H-dibenzo[b,f]azepine-5-carbonyl)-N^3—(N,N-dimethylsulphamoyl)-N^1,N^1-phenylpiperazine-1,3-dicarboxamide] | > 10000 nM | 35.9 nM | 
5 | O=C(O)[C@@H]1CN(C(=O)N2c3ccccc3Sc3ccccc32)CCN1C(=O)N(c1ccccc1)c1ccccc1 [Compound C44, (S)-1-(diphenylcarbamoyl)-4-(10H-phenothiazine-10-carbonyl)piperazine-2-carboxylic acid] | > 10000 nM | 62.6 nM | 
6 | O=C(O)[C@H]1CN(C(=O)N2c3ccccc3C=Cc3ccccc32)CCN1C(=O)N(c1ccccc1)c1ccccc1 [Compound C45, (R)-4-(5H-dibenzo[b,f]azepine-5-carbonyl)-1-(diphenylcarbamoyl) piperazine-2-carboxylic acid] | > 10000 nM | 55.5 nM | 
7 | O=C(O)[C@H]1CN(C(=O)N(c2ccccc2)c2ccccc2)CCN1C(=O)N1c2ccccc2C=Cc2ccccc21 [Compound C46, (R)-1-(5H-dibenzo [b,f]azepine-5-carbonyl)-4-(diphenylcarbamoyl) piperazine-2-carboxylic acid] | > 10000 nM | 54.5 nM | 
8 | O=C1Cc2ccccc2N(C(=O)N2CCN(C(=O)N(c3ccccc3)c3ccccc3)C[C@H]2C(=O)O)c2ccccc21 [Compound C77, (S)-4-(diphenylcarbamoyl)-1-(10-oxo-10,11-dihydro-5H-dibenzo[b,f]azepine-5-carbonyl)piperazine-2-carboxylic acid] | > 10000 nM | 32.3 nM | 
9 | O=C(O)[C@@H]1CN(C(=O)N(c2ccccc2)c2ccccc2)CCN1C(=O)C1(c2ccccc2)CCCCC1 [Compound C80, (S)-4-(diphenylcarbamoyl)-1-(1-phenylcyclohexanecarbonyl) piperazine-2-carboxylic acid] | > 10000 nM | 12.7 nM | 
